Experimental data as given in the supplement of paper PMC13380429.

Columns and labels:
Details in all cases: 72 h
Calu-3 [1] = assay: drug sensitivity score (DSS) for viability; higher = more toxic; extreme values may be limits of the assay
HepG2 [2] = assay: as above
U2OS [3] = assay: as above
Vero E6 [4] = assay: as above
Caco-2 [5] = assay: as above
Calu-3 [6] = assay: relative viability EC50 (midpoint between 100% and the lowest measured viability); higher = less toxic
HepG2 [7] = assay: as above
U2OS [8] = assay: as above
Vero E6 [9] = assay: as above
Caco-2 [10] = assay: as above
Calu-3 [11] = assay: cell viability relative to DMSO; higher = less toxic
HepG2 [12] = assay: as above
U2OS [13] = assay: as above
Vero E6 [14] = assay: as above
Caco-2 [15] = assay: as above

SMILES | drug sensitivity score (Calu-3 [1]) | drug sensitivity score (HepG2 [2]) | drug sensitivity score (U2OS [3]) | drug sensitivity score (Vero E6 [4]) | drug sensitivity score (Caco-2 [5]) | relative viability EC50 (Calu-3 [6]) [µM] | relative viability EC50 (HepG2 [7]) [µM] | relative viability EC50 (U2OS [8]) [µM] | relative viability EC50 (Vero E6 [9]) [µM] | relative viability EC50 (Caco-2 [10]) [µM] | cell viability (Calu-3 [11]; 1 nM) [%] | cell viability (Calu-3 [11]; 10 nM) [%] | cell viability (Calu-3 [11]; 100 nM) [%] | cell viability (Calu-3 [11]; 1000 nM) [%] | cell viability (Calu-3 [11]; 10000 nM) [%] | cell viability (HepG2 [12]; 1 nM) [%] | cell viability (HepG2 [12]; 10 nM) [%] | cell viability (HepG2 [12]; 100 nM) [%] | cell viability (HepG2 [12]; 1000 nM) [%] | cell viability (HepG2 [12]; 10000 nM) [%] | cell viability (U2OS [13]; 1 nM) [%] | cell viability (U2OS [13]; 10 nM) [%] | cell viability (U2OS [13]; 100 nM) [%] | cell viability (U2OS [13]; 1000 nM) [%] | cell viability (U2OS [13]; 10000 nM) [%] | cell viability (Vero E6 [14]; 1 nM) [%] | cell viability (Vero E6 [14]; 10 nM) [%] | cell viability (Vero E6 [14]; 100 nM) [%] | cell viability (Vero E6 [14]; 1000 nM) [%] | cell viability (Vero E6 [14]; 10000 nM) [%] | cell viability (Caco-2 [15]; 1 nM) [%] | cell viability (Caco-2 [15]; 10 nM) [%] | cell viability (Caco-2 [15]; 100 nM) [%] | cell viability (Caco-2 [15]; 1000 nM) [%] | cell viability (Caco-2 [15]; 10000 nM) [%]
Cc1cc(OI)c(C(C)C)cc1-c1cc(C(C)C)c(OI)cc1C [thymol-iodide] | 0 | 0 | 0 | 0 | 0.2 | > 10 | > 10 | > 10 | > 10 | > 10 | 91.2 | 97 | 102 | 101 | 105 | 99.5 | 105 | 92.8 | 99.1 | 93.7 | 101 | 103 | 103 | 98.2 | 99.6 | 104 | 102 | 99.7 | 99.5 | 97.7 | 104 | 102 | 103 | 97.7 | 87.9
NCc1cc(O)no1 [muscimol] | 0 | 0 | 0 | 0 | 0 | > 10 | > 10 | > 10 | > 10 | > 10 | 91.6 | 95.7 | 98.3 | 104 | 97.3 | 96.8 | 105 | 97.7 | 98.1 | 94.5 | 101 | 94.6 | 99.6 | 98.6 | 97.3 | 98.8 | 97 | 93.1 | 97.1 | 101 | 94.7 | 96.5 | 98.4 | 99.5 | 103
C[C@@H]1[C@H](O)[C@@H](C)/C=C/C=C/C=C/C=C/C=C/C=C/C=C/[C@H](O[C@@H]2O[C@H](C)[C@@H](O)[C@H](N)[C@@H]2O)C[C@@H]2O[C@](O)(C[C@@H](O)C[C@@H](O)[C@H](O)CC[C@@H](O)C[C@@H](O)CC(=O)O[C@H]1C)C[C@H](O)[C@H]2C(=O)O [amphotericin-b] | 0 | 0 | 0 | 0 | 0 | > 10 | > 10 | > 10 | > 10 | > 10 | 98.4 | 105 | 95.7 | 103 | 99.5 | 97.4 | 102 | 101 | 101 | 101 | 101 | 97 | 101 | 97.6 | 101 | 101 | 102 | 103 | 101 | 99.6 | 106 | 91.1 | 108 | 100 | 98.6
COc1cc2c(cc1OC)-c1c(C)c3ccc(OC)c(OC)c3c[n+]1CC2 [dehydrocorydaline] | 0 | 0 | 0 | 0 | 0 | > 10 | > 10 | > 10 | > 10 | > 10 | 96.4 | 105 | 91.2 | 102 | 100 | 98.6 | 99.4 | 95.1 | 94.2 | 95.7 | 99.1 | 101 | 98.6 | 100 | 97.1 | 95.9 | 100 | 99.6 | 94.8 | 98.5 | 97.6 | 100 | 92.5 | 101 | 88.8
COc1cnc(-c2ccc(Cn3c(CC(C)(C)C(=O)O)c(SC(C)(C)C)c4cc(OC[C@@H]5Cc6ccccc6N5C(C)=O)ccc43)cc2)nc1 [AM679] | 0 | 0 | 0 | 0 | 0 | > 10 | > 10 | > 10 | > 10 | > 10 | 101 | 95.4 | 101 | 109 | 107 | 103 | 104 | 101 | 102 | 93.4 | 102 | 99.8 | 99.7 | 100 | 98.1 | 114 | 105 | 106 | 99.9 | 128 | 102 | 94 | 99 | 97 | 92.4
CN(C)CC/C=C1/c2ccccc2Sc2ccc(Cl)cc21 [chlorprothixene] | 0.1 | 0.6 | 0 | 0 | 0 | > 10 | > 10 | > 10 | > 10 | > 10 | 103 | 101 | 106 | 106 | 84.8 | 99.6 | 103 | 103 | 98.4 | 82.9 | 104 | 101 | 102 | 99.7 | 100 | 103 | 110 | 103 | 106 | 89.2 | 122 | 99.5 | 96.2 | 90.5 | 100
O=C(Nc1ccccc1)OCC(CN1CCCCC1)OC(=O)Nc1ccccc1 (stereo not given) [diperodon] | 0 | 0 | 0 | 0 | 0 | > 10 | > 10 | > 10 | > 10 | > 10 | 112 | 122 | 93.3 | 104 | 98.8 | 100 | 97.8 | 96.1 | 110 | 103 | 95.5 | 93.6 | 94.5 | 91.8 | 94.4 | 90.9 | 95.5 | 87 | 96.6 | 100 | 87.6 | 89.7 | 87.6 | 83 | 95.5
O=C1NC(c2cccc([N+](=O)[O-])c2)=CCN1c1ccccc1O [icilin] | 0 | 0 | 0 | 0 | 0 | > 10 | > 10 | > 10 | > 10 | > 10 | 97.4 | 94.1 | 93.7 | 108 | 108 | 94.3 | 93.4 | 103 | 98 | 101 | 95.5 | 103 | 98.3 | 103 | 104 | 91.9 | 94.3 | 94 | 94.9 | 106 | 93.4 | 102 | 97.6 | 99.2 | 100
Nc1ncnc2c1ncn2C1CCCO1 (stereo not given) | 0 | 0 | 0 | 0 | 0 | > 10 | > 10 | > 10 | > 10 | > 10 | 106 | 102 | 94.1 | 102 | 102 | 98.7 | 94.8 | 103 | 93.9 | 103 | 97.4 | 98.9 | 94.8 | 99.4 | 98.9 | 95.6 | 102 | 101 | 98.8 | 100 | 104 | 107 | 99.7 | 90.2 | 91.7
COCC1=C(C(=O)O)N2C(=O)[C@@H](NC(=O)/C(=N\OC)c3csc(N)n3)[C@H]2SC1 [cefpodoxime] | 0 | 0 | 0 | 0 | 0 | > 10 | > 10 | > 10 | > 10 | > 10 | 98 | 105 | 96.8 | 99.4 | 103 | 106 | 103 | 108 | 101 | 96.1 | 104 | 99.6 | 105 | 102 | 101 | 99.7 | 98.1 | 99.2 | 97.5 | 99.4 | 106 | 112 | 97.5 | 91.4 | 105
CC(COc1ccccc1Cc1ccccc1)N1CCCCC1 (stereo not given) [benproperine] | 0 | 1.5 | 0 | 0 | 0.3 | > 10 | > 10 | > 10 | > 10 | > 10 | 94.8 | 106 | 89 | 103 | 88.4 | 104 | 109 | 96.5 | 85.7 | 87.9 | 92.8 | 96.3 | 92 | 102 | 89.3 | 112 | 100 | 103 | 101 | 98.1 | 90.6 | 106 | 96.4 | 100 | 83.4
CCCNC(C)C(=O)Nc1c(C)csc1C(=O)OC (stereo not given) [articaine] | 0 | 0 | 0 | 0 | 0 | > 10 | > 10 | > 10 | > 10 | > 10 | 94 | 94.6 | 100 | 93.5 | 106 | 97.9 | 105 | 110 | 104 | 112 | 96.5 | 95.8 | 99.7 | 92.8 | 105 | 93.4 | 93.1 | 96.1 | 97.3 | 108 | 98.5 | 96.7 | 95.2 | 104 | 105
O=C1[C@@H]2[C@H]3CC[C@H](C3)[C@@H]2C(=O)N1CCCCN1CCN(c2ncccn2)CC1 [tandospirone] | 1.3 | 0 | 0 | 0 | 0 | > 10 | > 10 | > 10 | > 10 | > 10 | 113 | 103 | 92 | 86.8 | 99.7 | 107 | 97 | 110 | 104 | 99.7 | 98.3 | 98.6 | 98.5 | 99.8 | 97.7 | 107 | 104 | 98.5 | 96.2 | 101 | 93.6 | 95.5 | 94.1 | 98.2 | 95.4
Cc1ncc(CO)c(CO)c1O [pyridoxine] | 0 | 0 | 0 | 0 | 0 | > 10 | > 10 | > 10 | > 10 | > 10 | 92.2 | 97.2 | 97.1 | 98.5 | 98.6 | 98.5 | 105 | 91 | 96.2 | 107 | 96.7 | 94.2 | 98.1 | 94.6 | 96.8 | 102 | 105 | 97.8 | 108 | 106 | 96.4 | 80.3 | 94.3 | 105 | 88
